From patent publication US9540647B2, “Methods and compositions for the treatment of cancer” (University of South Alabama, priority 2010, dated 2017) come the findings set out here.

Assay [1] concerns OPN. The assay is described as follows: Secreted OPN in conditioned media of MDA-MB-435 cells (Western blot). The format is cell-based, human. The settings on record: 10 μM and 20 μM cyclopamine vs DMSO. The protocol:
Stable vector only and non-targeting (scrambled control) transfectants were also generated. Stable transfectants were selected on medium supplemented with 500 μg/ml Geneticin (Invitrogen). The four GLI1-knocked down clones chosen were based on the extent of GLI1 knockdown and were termed KO1, KO2, KO3, and KO4. The expression of OPN was restored in the KO1 cells by transfecting with pcDNA3.1-OPN. A corresponding vector-only transfectant was also generated. Transfectants were selected on medium containing Geneticin (500 μg/ml) and hygromycin (750 μg/ml). Serum-free conditioned medium harvested from approximately 3.0×10^6 cells after 24 hr was assayed for OPN by immunoblotting.
Western Blotting Analysis—Whole cell lysates were collected in Nonidet P-40 buffer (150 mM NaCl, 50 mM Tris, 1% Nonidet P-40). Isolation of cytosolic and nuclear fractions was done as previously reported (15). Total protein (30 μg) was resolved by SDS-PAGE gel and transferred to polyvinylidene difluoride membranes. […] Secreted OPN was assessed by loading an equal quantity of protein from the serum-free conditioned medium. […]

In assay [2] the test system is OPN. The assay is described as follows: OPN expression in RAW264.7 pre-osteoclasts in response to SHH. The format is cell-based, murine. The settings on record: RAW264.7 cells. The protocol:
Western Blotting Analysis—Whole cell lysates were collected in NP-40 buffer (150 mM NaCl, 50 mM Tris, 1% NP-40). Total protein (30 μg) was resolved by SDS-PAGE gel and transferred to PVDF membranes. Membranes were immunoblotted overnight at 4° C. with antibodies to either SHH (Santacruz, Calif., USA) or IHH (Santacruz). Equal loading was confirmed with anti-β-tubulin (Cell Signaling, Danvers, Mass.). To assess OPN expression upon SHH treatment, […] were grown in 6-well plates in the presence of SHH. After 24 hours the cells were lysed in NP-40 buffer and 30 μg of each experimental group assessed by immunoblotting. To assess for the expression of OPN, MMP9 and CTSK, at the end of Day 6 of differentiation, all the different experimental groups were kept in serum free medium for 24 hrs and both, the conditioned media and whole cell lysates were collected and immunoblotted using antibodies to either anti-mouse OPN (Millipore, Bedford, Mass.), or CTSK (SantaCruz Biotech). Equal loading was confirmed with anti-β-actin (Sigma) antibody. Secreted MMP9 (Santa Cruz Biotech) was assessed by loading equal quantity of protein from the serum-free conditioned medium. Corresponding HRP conjugated secondary antibodies were used for detection; blots were developed with SuperSignal enhanced chemiluminescence substrate (Pierce, Rockford, Ill.) and imaged using a Fuji LAS3000 imager. Detection and quantification of proteins was done using Fuji LAS 3000 apparatus and Multigauge V3.1 software (Fujifilm, Valhalla, N.Y.). Band intensities were measured in arbitrary Units (AU). […]
Luciferase Assay—Cells were co-transfected with the OPN promoter construct, pGL3-OPNB and pSV-β-galactosidase (Promega) (Das, S., et al. (2009) J Biol Chem 284, 22888-22897). […] Readings were normalized to β-galactosidase. […]
Quantitative RT-PCR (qRT-PCR)—cDNA was generated using High Capacity Reverse Transcriptase Kit (Applied Biosystems, Foster City, Calif.). […] Following the experimental regime as described herein (for Osteoclast differentiation/activity) RNA was isolated using Trizol (Invitrogen) and assessed as described herein. […]

`CC1=C2C[C@H]3[C@@H](CC=C4C[C@@H](O)CC[C@@]43C)[C@@H]2CC[C@]12O[C@@H]1C[C@H](C)CN[C@H]1[C@H]2C` [cyclopamine]: the “OPN in the secretome” value with OPN [1] is listed as “decreased”.

For “SHH: recombinant Sonic Hedgehog ligand (R & D Systems)”, the “expression of OPN (immunoblot)” value with OPN [2] (24 hours post SHH treatment) is listed as “stimulates the expression of OPN”. The OPN promoter activity entry in the assay on OPN [2] (24 hours post-SHH treatment) was “significantly (p<0.05) higher”. Besides, the “levels of OPN mRNA” value in the assay with OPN [2] (recombinant SHH vs untreated) is “significantly greater levels of OPN mRNA”.
